Assay results: US20090047408A1, “Method for Improving Absorbability of Epigallocatechin Gallate, Foods, Drinks and Food/Drink Materials Using the Same and Method for Producing the Same” (ITO EN, LTD, priority 2005, published 2009)

Key:
Assay type in all cases: in vivo
[1] = Absorbability of EGCg in humans: blood EGCg level after drinking drinks A to C (chemiluminescence-HPLC)
Experimental: Caffeine formulation (manufactured by […] Pharmaceutical Co., Ltd.), EGCg formulation (content of EGCg: 90% or more, trade name: Teavigo, manufactured by DSM Nutritional Products), ascorbic acid and citric acid were added in the amounts shown in Table 2, respectively, to 190 ml of water, which were dissolved. Thereafter, each of the resulting mixtures was poured into a can, respectively, which was sealed and sterilized by heat and then drinks A to C were prepared. […] Each of subjects drank one of the drinks […] minutes after the drinking was measured by chemiluminescence-HPLC. The measurement was subjected in three subjects for each drink. The relationship between the C/E ratio and the blood EGCg level is graphically represented in accordance with Table 2, which is shown as FIG. 2. According to Table 2, the blood EGCg level of subjects is the highest in the case that the drink B having the C/E ratio of 0.4 has been taken by the subjects, and the blood EGCg level falls in either case where the C/E ratio is lower or higher than that.

[2] = Changes in blood concentration over time of orally ingested EGCg and caffeine in humans; details: oral ingestion
[3] = Absorbability of EGCg in rats: blood EGCg level after oral administration of caffeine and EGCg solutions (chemiluminescence-HPLC); details: average of six rats
Experimental: Teavigo, manufactured by DSM Nutritional Products) in 1 ml of water were prepared. In accordance with Experimental plots 1 to 7 shown in Table 1, the solution of caffeine and the solution of EGCg were orally administered to rats. After 60 minutes from the administration, the blood EGCG level in rats was measured by chemiluminescence-HPLC. The measurement was subjected by using six rats for each Experimental plot. The relationship between the C/E ratio and the blood EGCg level is graphically represented in accordance with Table 1, which is shown as FIG. 1. […] When the C/E ratio is lower or higher than that, the blood EGCg level is reduced.

Compound: O=C(O[C@@H]1Cc2c(O)cc(O)cc2O[C@@H]1c1cc(O)c(O)c(O)c1)c1cc(O)c(O)c(O)c1 [EGCg, epigallocatechin gallate]
- Absorbability of EGCg relative to EGCg alone ([1]; C/E ratio 0.18 to 0.70): ≥ 1.7 times
- Absorbability of EGCg relative to normal green tea infusion ([1]; C/E ratio 0.18 to 0.70): ≥ 1.1 times
- Absorbability of EGCg relative to EGCg alone ([1]; C/E ratio 0.20 to 0.60): ≥ 1.75 times
- Absorbability of EGCg relative to normal green tea infusion ([1]; C/E ratio 0.20 to 0.60): ≥ 1.15 times
- Increase of absorbability of EGCg relative to normal tea ([1]; optimized C/E ratio, maximum): up to 1.2 times
- Time at which blood concentration reaches a maximum value [2]: about 1.5 hours
- Blood EGCg level ([3]; Exp. plot 1: rats, caffeine 0 mg + EGCg 30 mg, C/E ratio 0, 60 minutes after administration): 229 pmol/mL
- Blood EGCg level ([3]; Exp. plot 2: rats, caffeine 3 mg + EGCg 30 mg, C/E ratio 0.1, 60 minutes after administration): 243 pmol/mL
- Blood EGCg level ([3]; Exp. plot 3: rats, caffeine 6 mg + EGCg 30 mg, C/E ratio 0.2, 60 minutes after administration): 270 pmol/mL
- Blood EGCg level ([3]; Exp. plot 4: rats, caffeine 15 mg + EGCg 30 mg, C/E ratio 0.5, 60 minutes after administration): 221 pmol/mL
- Blood EGCg level ([3]; Exp. plot 5: rats, caffeine 30 mg + EGCg 30 mg, C/E ratio 1.0, 60 minutes after administration): 153 pmol/mL
- Blood EGCg level ([3]; Exp. plot 6: rats, caffeine 45 mg + EGCg 30 mg, C/E ratio 1.5, 60 minutes after administration): 90 pmol/mL
- Blood EGCg level ([3]; Exp. plot 7: rats, caffeine 65 mg + EGCg 30 mg, C/E ratio 2.2, 60 minutes after administration): 94 pmol/mL

Compound: Cn1c(=O)c2c(ncn2C)n(C)c1=O [caffeine, reference compound]
- Time at which blood concentration reaches a maximum value [2]: about 1.5 hours
